Measured values taken from the NIST ThermoML archive (doi:10.1021/je201334p).

Key:
[1] = refractive index (Na D-line) (dimensionless); xn = mol fraction of the nth substance listed; conditions: 101 kPa, Liquid, Standard Abbe refractometry
[2] = xn = mol fraction of the nth substance listed; conditions: 101 kPa, Liquid; for speed of sound: Sing-around technique in a fixed-path interferometer; for mass density: Vibrating tube method

CCCCn1cc[n+](C)c1.O=S(=O)([O-])C(F)(F)F [1-butyl-3-methylimidazolium trifluoromethanesulfonate] + O
Conditions	mass density, 288.15 K [kg/m3]	mass density, 298.15 K [kg/m3]	mass density, 308.15 K [kg/m3]	refractive index, 288.15 K	refractive index, 298.15 K	refractive index, 308.15 K	speed of sound, 288.15 K [m/s]	speed of sound, 298.15 K [m/s]	speed of sound, 308.15 K [m/s]
[1], x2 = 0	–	–	–	1.44032	1.43755	1.43475	–	–	–
[1], x2 = 0.1348	–	–	–	1.43903	1.43626	1.43343	–	–	–
[1], x2 = 0.2028	–	–	–	1.43815	1.43535	1.43259	–	–	–
[1], x2 = 0.2056	–	–	–	1.4381	1.4353	1.43253	–	–	–
[1], x2 = 0.3083	–	–	–	1.43654	1.43373	1.4309	–	–	–
[1], x2 = 0.4985	–	–	–	1.43224	1.4294	1.42655	–	–	–
[1], x2 = 0.6062	–	–	–	1.42835	1.42546	1.42268	–	–	–
[1], x2 = 0.7015	–	–	–	1.42301	1.42021	1.41759	–	–	–
[1], x2 = 0.8064	–	–	–	1.41332	1.41072	1.40803	–	–	–
[1], x2 = 0.8998	–	–	–	1.39564	1.39323	1.39103	–	–	–
[1], x2 = 0.9309	–	–	–	1.38516	1.3829	1.38091	–	–	–
[1], x2 = 0.9548	–	–	–	1.37365	1.37157	1.36969	–	–	–
[2], x2 = 0	1307.5	1299.55	1291.62	–	–	–	1414.3	1391.4	1369.1
[2], x2 = 0.1348	1303.64	1295.68	1287.74	–	–	–	1419.7	1396.7	1374.8
[2], x2 = 0.2028	1301.3	1293.3	1285.33	–	–	–	1422.9	1400.2	1378.1
[2], x2 = 0.2056	1301.2	1293.22	1285.23	–	–	–	1423.2	1400.9	1379.4
[2], x2 = 0.3083	1296.7	1288.66	1280.65	–	–	–	1429.3	1406.7	1384.6
[2], x2 = 0.4985	1284.57	1276.45	1268.32	–	–	–	1445	1422.8	1400.9
[2], x2 = 0.6062	1273.42	1265.25	1257.08	–	–	–	1458	1436.4	1414.8
[2], x2 = 0.7015	1258.59	1250.44	1242.22	–	–	–	1473.8	1453.1	1432
[2], x2 = 0.8064	1231.3	1223.33	1215.23	–	–	–	1496.3	1478.8	1460
[2], x2 = 0.8998	1180.1	1172.98	1165.56	–	–	–	1523.9	1513.4	1500.5
[2], x2 = 0.9309	1149.84	1143.39	1136.56	–	–	–	1533.1	1527.6	1519.2
[2], x2 = 0.9548	1116.26	1110.62	1104.51	–	–	–	1540	1540.1	1536.7

CCCC[n+]1cccc(C)c1.O=S(=O)([O-])C(F)(F)F [1-butyl-3-methylpyridinium trifluoromethanesulfonate] + O
Conditions	mass density, 288.15 K [kg/m3]	mass density, 298.15 K [kg/m3]	mass density, 308.15 K [kg/m3]	refractive index, 288.15 K	refractive index, 298.15 K	refractive index, 308.15 K	speed of sound, 288.15 K [m/s]	speed of sound, 298.15 K [m/s]	speed of sound, 308.15 K [m/s]
[1], x2 = 0	–	–	–	1.46446	1.46155	1.45868	–	–	–
[1], x2 = 0.0794	–	–	–	1.46358	1.46073	1.45784	–	–	–
[1], x2 = 0.1517	–	–	–	1.46266	1.45982	1.45694	–	–	–
[1], x2 = 0.2502	–	–	–	1.46111	1.45822	1.45535	–	–	–
[1], x2 = 0.3515	–	–	–	1.4591	1.45623	1.45331	–	–	–
[1], x2 = 0.4528	–	–	–	1.45651	1.45363	1.45069	–	–	–
[1], x2 = 0.5628	–	–	–	1.45257	1.44968	1.44673	–	–	–
[1], x2 = 0.6561	–	–	–	1.4477	1.44482	1.44183	–	–	–
[1], x2 = 0.7494	–	–	–	1.44008	1.43724	1.43429	–	–	–
[1], x2 = 0.8383	–	–	–	1.42747	1.42474	1.42192	–	–	–
[1], x2 = 0.9201	–	–	–	1.40357	1.40118	1.39863	–	–	–
[1], x2 = 0.9603	–	–	–	1.37998	1.37782	1.3757	–	–	–
[2], x2 = 0	1287.07	1279.41	1271.8	–	–	–	1436.1	1412.3	1389.6
[2], x2 = 0.0794	1285.23	1277.62	1269.98	–	–	–	1439.2	1415.5	1392.5
[2], x2 = 0.1517	1283.28	1275.63	1267.96	–	–	–	1442.3	1418.7	1395.8
[2], x2 = 0.2502	1279.99	1272.28	1264.58	–	–	–	1447.7	1424.3	1401.5
[2], x2 = 0.3515	1275.76	1268	1260.24	–	–	–	1454.3	1431.2	1408.5
[2], x2 = 0.4528	1270.21	1262.4	1254.58	–	–	–	1463	1440	1417.4
[2], x2 = 0.5628	1261.9	1254.01	1246.08	–	–	–	1475.6	1452.9	1430.3
[2], x2 = 0.6561	1251.55	1243.59	1235.57	–	–	–	1489.9	1467.6	1445.3
[2], x2 = 0.7494	1235.48	1227.52	1219.46	–	–	–	1508.6	1487.4	1465.8
[2], x2 = 0.8383	1208.29	1200.56	1192.69	–	–	–	1530.4	1512.5	1493.4
[2], x2 = 0.9201	1155.76	1149.07	1142.04	–	–	–	1548.9	1540.1	1528.6
[2], x2 = 0.9603	1103.57	1098.18	1092.3	–	–	–	1553.2	1553.5	1550.4

CCOS(=O)(=O)[O-].CCc1cccc[n+]1CC [1,2-diethylpyridinium ethylsulfate] + O
Conditions	mass density, 288.15 K [kg/m3]	mass density, 298.15 K [kg/m3]	mass density, 308.15 K [kg/m3]	refractive index, 288.15 K	refractive index, 298.15 K	refractive index, 308.15 K	speed of sound, 288.15 K [m/s]	speed of sound, 298.15 K [m/s]	speed of sound, 308.15 K [m/s]
[1], x2 = 0	–	–	–	1.51631	1.5135	1.51067	–	–	–
[1], x2 = 0.0987	–	–	–	1.51478	1.51196	1.50914	–	–	–
[1], x2 = 0.1089	–	–	–	1.51458	1.51176	1.50896	–	–	–
[1], x2 = 0.2048	–	–	–	1.51266	1.50984	1.50705	–	–	–
[1], x2 = 0.3037	–	–	–	1.51023	1.50743	1.50461	–	–	–
[1], x2 = 0.3979	–	–	–	1.50723	1.5044	1.50156	–	–	–
[1], x2 = 0.4922	–	–	–	1.50325	1.50042	1.49759	–	–	–
[1], x2 = 0.6018	–	–	–	1.49668	1.49381	1.49094	–	–	–
[1], x2 = 0.7084	–	–	–	1.48656	1.48367	1.48071	–	–	–
[1], x2 = 0.8029	–	–	–	1.47121	1.46831	1.46515	–	–	–
[1], x2 = 0.8984	–	–	–	1.43938	1.43661	1.43375	–	–	–
[1], x2 = 0.9493	–	–	–	1.4043	1.40198	1.40013	–	–	–
[2], x2 = 0	1225.93	1219.26	1212.65	–	–	–	1774.5	1745.2	1718.4
[2], x2 = 0.0987	1224.31	1217.63	1211.14	–	–	–	1778.2	1749.1	1722.4
[2], x2 = 0.1089	1224.06	1217.36	1210.87	–	–	–	1778.4	1749.5	1723
[2], x2 = 0.2048	1222.4	1215.83	1209.22	–	–	–	1781.1	1753.9	1727.5
[2], x2 = 0.3037	1219.81	1213.23	1206.65	–	–	–	1787.5	1760.5	1734.4
[2], x2 = 0.3979	1216.82	1210.11	1203.43	–	–	–	1794.1	1767.4	1741.1
[2], x2 = 0.4922	1212.76	1206.04	1199.29	–	–	–	1803.5	1776.8	1750.6
[2], x2 = 0.6018	1205.78	1198.92	1192.05	–	–	–	1817.3	1790.5	1763.7
[2], x2 = 0.7084	1194.96	1187.92	1180.85	–	–	–	1836.4	1809.2	1782.1
[2], x2 = 0.8029	1177.39	1170.26	1163.05	–	–	–	1854.8	1827.2	1799.4
[2], x2 = 0.8984	1138.4	1131.51	1124.48	–	–	–	1846.6	1821.6	1795.6
[2], x2 = 0.9493	1092.23	1086.65	1080.72	–	–	–	1759.2	1746.2	1731.8
